Results: patent US8314268B2, “1-phenylalkanecarboxylic acid derivatives for the treatment of neurodegenerative diseases” (Chiesi Farmaceutici S.p.A., priority 2003, dated 2012)
Read-outs that look alike come from different tables or passages of the source.

Columns and labels:
cyclooxygenase-1 (COX-1) = target: T1, cyclooxygenase-1 (COX-1) (Rattus norvegicus, UniProt Q63921); assay: Inhibition of cyclooxygenase-1 (COX-1) in rat whole blood (TxB2 production); assay type: cell-based; conditions: for inhibition at 100 µM: read-out: % COX-1 inhibitory activity
T1 construct: Aliquots of heparinized blood (500 μl) were preincubated with 100 μM concentration of the tested compounds; from tissue; host or cells: rat whole blood (heparinized, from the abdominal aorta)
T1 sequence (Q63921 27-602): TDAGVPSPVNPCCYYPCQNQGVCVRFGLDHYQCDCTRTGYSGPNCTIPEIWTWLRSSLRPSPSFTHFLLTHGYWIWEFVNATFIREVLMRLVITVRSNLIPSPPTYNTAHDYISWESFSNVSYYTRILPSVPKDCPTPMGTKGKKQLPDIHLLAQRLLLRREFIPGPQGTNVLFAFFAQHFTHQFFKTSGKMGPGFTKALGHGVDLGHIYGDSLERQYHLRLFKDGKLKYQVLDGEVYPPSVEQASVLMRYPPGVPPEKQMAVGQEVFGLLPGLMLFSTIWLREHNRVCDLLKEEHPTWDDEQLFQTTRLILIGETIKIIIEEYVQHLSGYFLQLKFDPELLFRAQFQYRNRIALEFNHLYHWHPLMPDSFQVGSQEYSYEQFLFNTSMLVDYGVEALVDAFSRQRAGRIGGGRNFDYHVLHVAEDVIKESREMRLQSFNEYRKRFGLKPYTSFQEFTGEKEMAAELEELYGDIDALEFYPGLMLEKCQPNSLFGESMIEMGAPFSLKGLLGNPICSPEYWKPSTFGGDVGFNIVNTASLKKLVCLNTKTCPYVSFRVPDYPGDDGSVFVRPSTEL
Protocol: Whole blood was taken from the rat abdominal aorta and immediately placed in heparinized tubes. Aliquots of heparinized blood (500 μl) were preincubated with 100 μM concentration of the tested compounds or with the only carrier (DMSO) for 1 h at 37° C. Eicosanoid production was induced by addition of calcium ionophore A23187 (final concentration 5×10^−5 M) and was interrupted after 30 minute incubation by quickly placing the samples in dry ice. Thereafter, samples were centrifuged (12000 g×3 minutes a 4° C.) and the production of TxB2 thromboxane B2 was calculated by radioimmunoassay.

[1] = system: Aβ42 release in H4-15× cells; assay: Inhibition of Aβ42 release in the supernatant of H4-15× cells; assay type: cell-based, human; conditions: for % inhibition of Aβ42 release: 100 μM, overnight (14-16 hours) incubation; for inhibition at 100 µM: Homo sapiens, H415, overnight (14-16 hours) incubation
Protocol: H4-15× cells (human neuroglioma cells transfected with the human gene encoding for the precursor of β-amyloid protein APP695) were cultured in flasks (in incubator at 37° C., under aqueous vapour saturated atmosphere with 5% carbon dioxide), in the presence of hygromycin and blasticidin, which maintain the selective pressure for the cells continuously expressing the gene of interest.
When the cells reached about 90% confluency, they were collected and re-seeded in 24 wells plates (2×10^5 cells each), in 0.5 ml of complete culture medium. After approx. 24 hours, when the cells had adhered to the well surface and reached confluency, the medium of each well was replaced with 0.5 ml of fresh culture medium, supplemented with a compound (I) to 100 micromolar final concentration. Each tested concentration was repeated in triplicate. The molecules used for the treatment were previously dissolved in dimethylsulfoxide (DMSO) or in a dimethylsulfoxide/water mixture, the final concentration of DMSO in the wells not exceeding 1%. Thus the prepared plates were incubated again overnight (14-16 hours); afterwards the cell supernatant was taken from each well and Aβ42 and Aβ40 proteins were quantitated. The assay was carried out with an instrumentation for microplates chemoluminescence analysis, which allows to separately quantify the two proteins and is based on the immobilization of an analyte-antibody complex on paramagnetic microbeads. One of the antibodies of this complex is marked with a ruthenium compound which, upon electrochemical excitement, gives a light signal, having intensity proportional to the amount of analyte present.

[2] = 100 μM, rat whole blood, calcium ionophore A23187-induced TxB2 production

Row | Structure (SMILES) | % COX-1 inhibitory activity (cyclooxygenase-1 (COX-1); [2]) [%] | inhibition at 100 µM (cyclooxygenase-1 (COX-1); [2]) [%] | % inhibition of Aβ42 release [1] [%] | inhibition at 100 µM [1] [%] | inhibition at 100 µM (cyclooxygenase-1 (COX-1)) [%]
1 | O=C(O)C1(c2ccc(-c3ccc(-c4ccc(F)cc4)cc3F)c(F)c2)CC1 [CHF 5105, 1-(2,2′,4″-trifluoro[1,1′:4′,1″-tert-phenyl]-4-yl)-cyclopropanecarboxylic acid] | 1.9 | – | 90.7 | – | –
2 | C#CCOc1ccc(-c2ccc(C3(C(=O)O)CC3)cc2F)cc1 [CHF 5078, 1-(2-fluoro-4′-prop-2-inyloxy-biphenyl-4-yl)-cyclopropanecarboxylic acid] | 3.6 | – | 57.5 | – | –
3 | CC(C)(C(=O)O)c1ccc(-c2ccc(C3CCCCC3)cc2)c(F)c1 [CHF 4961, 2-methyl-2(2-fluoro-4′cyclohexylbiphen-4-yl)propionic acid] | – | 5.2 | – | 76.6 | –
4 | O=C1CCC(c2ccc(-c3ccc(C4(C(=O)O)CC4)cc3F)cc2)CC1 [CHF 5081, 1-[2-fluoro-4′-(4-oxo-cyclohexyl)-biphenyl-4-yl]-cyclopropanecarboxylic acid] | – | 6.1 | – | 52.3 | –
5 | O=C(O)C1(c2ccc(-c3ccc(OC4CCOCC4)cc3)c(F)c2)CC1 [CHF 5071, 1-[2-fluoro-4′-(tetrahydropyran-4-yloxy)biphenyl-4-yl]-cyclopropane-carboxylic acid] | – | 0.4 | – | 28.1 | –
6 | O=C(O)C1CC1c1ccc(-c2ccc(-c3ccc(O)cc3)cc2)c(F)c1 (centres unmarked) [CHF 5083, 2-(2″-fluoro-4-hydroxy-[1,1′:4′,1″]tert-phenyl-4″-yl)-cyclopropanecarboxylic acid] | – | – | 81.1 | – | –
7 | O=C(O)C1(c2ccc(-c3ccc(C4CCOCC4)cc3)c(F)c2)CC1 [CHF 5080, 1-[2-fluoro-4′-(tetrahydropyran-4-yl)-biphenyl-4-yl]-cyclopropanecarboxylic acid] | – | 0.3 | – | 51.8 | –
8 | CC(C)(C(=O)O)c1ccc(-c2ccc(C(F)(F)F)cc2)c(F)c1 [CHF 4810, 2-methyl-2(2-fluoro-4′-trifluoromethylbiphen-4-yl)propionic acid] | – | – | – | 58 | –
9 | O=C(O)C1(c2ccc(-c3ccc(-c4ccc(O)cc4)c(F)c3)c(F)c2)CC1 [CHF 5106, 1-(2,3′-difluoro-4″-hydroxy[1,1′:4′,1″-tert-phenyl]-4-yl)-cyclopropane-carboxylic acid] | 0.0 | – | 79.9 | – | –
10 | CC(C(=O)O)c1ccc(-c2ccccc2)c(F)c1 (centres unmarked) [Flurbiprofen, reference compound] | – | – | – | ~25 | 100
11 | O=C(O)C1(c2ccc(-c3ccc(-c4ccc(O)cc4)cc3F)c(F)c2)CC1 [CHF 5107, 1-(2,2′-difluoro-4″-hydroxy[1,1′:4′,1″-tert-phenyl]-4-yl)-cyclopropane-carboxylic acid] | 1.1 | – | 83.3 | – | –
12 | O=C(O)C1(c2ccc(-c3ccc(OC4CCC(C(F)(F)F)CC4)cc3)c(F)c2)CC1 (centres unmarked) [CHF 5096, 1-[2-fluoro-4′-[[4-(trifluoromethyl)cyclohexyl]oxy][1,1′-biphenyl]-4-yl]-cyclopropanecarboxylic acid] | – | 0.8 | – | 70 | –

Further lines, with some results ahead:

Row | % COX-1 inhibitory activity (cyclooxygenase-1 (COX-1); [2]) [%] | inhibition at 100 µM (cyclooxygenase-1 (COX-1); [2]) [%] | Structure (SMILES) | % inhibition of Aβ42 release [1] [%] | inhibition at 100 µM [1] [%] | inhibition at 100 µM (cyclooxygenase-1 (COX-1)) [%]
13 | – | 0 | O=C(O)C1(c2ccc(-c3ccc(C(F)(F)F)cc3)c(F)c2)CC1 [CHF 5022, 1-(2-fluoro-4′-trifluoromethylbiphenyl-4-yl)cyclopropanecarboxylic acid] | – | 55.4 | –
14 | – | 0 | O=C(O)C1(c2ccc(-c3ccc(O)cc3)c(F)c2)CC1 [CHF 5070, 1-(2-fluoro-4′-hydroxybiphenyl-4-yl)cyclopropanecarboxylic acid] | – | 22.4 | –
15 | – | 5.5 | O=C(O)C1(c2ccc(-c3ccc(F)c(Cl)c3)c(F)c2)CC1 [CHF 5076, 1-(3′-chloro-2,4′-difluorobiphenyl-4-yl)cyclopropanecarboxylic acid] | – | 71.4 | –
16 | – | 0 | O=C(O)C1(c2ccc(-c3cccc(C(F)(F)F)c3)c(F)c2)CC1 [CHF 5058, 1-(2-fluoro-3′-trifluoromethylbiphenyl-4-yl)cyclopropanecarboxylic acid] | – | 54.8 | –
17 | – | 2.6 | O=C(O)C1(c2ccc(-c3ccc(OC(F)(F)F)cc3)c(F)c2)CC1 [CHF 5046, 1-(2-fluoro-4′-trifluoromethoxybiphenyl-4-yl)cyclopropanecarboxylic acid] | – | 70.4 | –
18 | – | 0.5 | O=C(O)C1(c2ccc(-c3ccc(Cl)c(Cl)c3)c(F)c2)CC1 [CHF 5074, 1-(3′,4′-dichloro-2-fluorobiphenyl-4-yl)cyclopropanecarboxylic acid] | – | 79.2 | –
19 | – | 4.8 | O=C(O)C1(c2ccc(-c3ccc(F)c(F)c3)c(F)c2)CC1 [CHF 5073, 1-(2,3′,4′-trifluorobiphenyl-4-yl)cyclopropanecarboxylic acid] | – | 67.4 | –
20 | – | 8.3 | O=C(O)C1(c2ccc(-c3cccc(OC(F)(F)F)c3)c(F)c2)CC1 [CHF 5045, 1-(2-fluoro-3′-trifluoromethoxybiphenyl-4-yl)cyclopropanecarboxylic acid] | – | 56.4 | –
